Tests used:
[1] = target: Rho-associated protein kinase 2 (Homo sapiens, UniProt O75116); assay: Inhibition of ROCK2 (unknown origin) using STK2 as substrate measured after 4 hrs by HTRF assay
[2] = target: Rho-associated protein kinase 1 (Homo sapiens, UniProt Q13464); assay: Inhibition of ROCK1 (unknown origin) using STK2 as substrate measured after 4 hrs by HTRF assay
Homo sapiens = species on record: Homo sapiens; assay: Selectivity ratio of IC50 for ROCK1 (unknown origin) to IC50 for ROCK2 (unknown origin)

Sequence of Rho-associated protein kinase 2 (O75116 whole entry): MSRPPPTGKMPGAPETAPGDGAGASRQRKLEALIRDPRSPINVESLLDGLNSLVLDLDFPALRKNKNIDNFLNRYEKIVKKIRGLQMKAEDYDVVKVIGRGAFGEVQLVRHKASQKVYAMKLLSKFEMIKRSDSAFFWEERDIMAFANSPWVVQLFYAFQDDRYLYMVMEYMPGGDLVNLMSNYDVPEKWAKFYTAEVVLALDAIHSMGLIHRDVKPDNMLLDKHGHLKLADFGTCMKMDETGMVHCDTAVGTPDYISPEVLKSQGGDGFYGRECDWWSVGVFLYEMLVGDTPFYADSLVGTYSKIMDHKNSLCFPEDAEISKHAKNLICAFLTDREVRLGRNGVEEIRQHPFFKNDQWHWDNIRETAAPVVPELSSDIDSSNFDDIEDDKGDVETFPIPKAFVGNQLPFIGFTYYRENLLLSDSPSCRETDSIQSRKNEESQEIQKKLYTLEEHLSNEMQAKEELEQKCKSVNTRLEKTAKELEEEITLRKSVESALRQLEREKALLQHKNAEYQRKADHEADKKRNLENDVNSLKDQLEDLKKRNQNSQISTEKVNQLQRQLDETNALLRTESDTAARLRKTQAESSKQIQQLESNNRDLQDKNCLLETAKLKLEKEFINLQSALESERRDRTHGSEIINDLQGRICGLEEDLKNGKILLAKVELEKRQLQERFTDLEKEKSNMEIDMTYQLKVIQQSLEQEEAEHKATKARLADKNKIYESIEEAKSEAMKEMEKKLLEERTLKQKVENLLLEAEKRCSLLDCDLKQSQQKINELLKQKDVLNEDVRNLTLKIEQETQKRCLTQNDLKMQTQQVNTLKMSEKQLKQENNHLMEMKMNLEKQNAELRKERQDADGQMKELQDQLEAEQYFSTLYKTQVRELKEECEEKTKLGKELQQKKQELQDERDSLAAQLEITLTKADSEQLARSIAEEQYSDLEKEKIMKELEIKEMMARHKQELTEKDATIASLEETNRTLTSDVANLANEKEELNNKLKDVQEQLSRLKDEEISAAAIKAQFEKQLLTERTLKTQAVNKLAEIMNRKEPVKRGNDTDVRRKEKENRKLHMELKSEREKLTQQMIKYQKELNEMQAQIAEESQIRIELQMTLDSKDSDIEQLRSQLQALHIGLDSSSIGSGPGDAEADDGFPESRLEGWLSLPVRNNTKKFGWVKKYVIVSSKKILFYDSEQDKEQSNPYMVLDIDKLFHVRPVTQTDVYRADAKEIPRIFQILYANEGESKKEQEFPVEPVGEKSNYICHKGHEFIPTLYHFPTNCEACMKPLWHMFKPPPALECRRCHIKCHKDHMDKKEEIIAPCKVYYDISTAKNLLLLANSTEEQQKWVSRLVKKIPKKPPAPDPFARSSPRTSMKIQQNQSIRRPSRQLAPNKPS
Sequence of Rho-associated protein kinase 1 (Q13464 whole entry): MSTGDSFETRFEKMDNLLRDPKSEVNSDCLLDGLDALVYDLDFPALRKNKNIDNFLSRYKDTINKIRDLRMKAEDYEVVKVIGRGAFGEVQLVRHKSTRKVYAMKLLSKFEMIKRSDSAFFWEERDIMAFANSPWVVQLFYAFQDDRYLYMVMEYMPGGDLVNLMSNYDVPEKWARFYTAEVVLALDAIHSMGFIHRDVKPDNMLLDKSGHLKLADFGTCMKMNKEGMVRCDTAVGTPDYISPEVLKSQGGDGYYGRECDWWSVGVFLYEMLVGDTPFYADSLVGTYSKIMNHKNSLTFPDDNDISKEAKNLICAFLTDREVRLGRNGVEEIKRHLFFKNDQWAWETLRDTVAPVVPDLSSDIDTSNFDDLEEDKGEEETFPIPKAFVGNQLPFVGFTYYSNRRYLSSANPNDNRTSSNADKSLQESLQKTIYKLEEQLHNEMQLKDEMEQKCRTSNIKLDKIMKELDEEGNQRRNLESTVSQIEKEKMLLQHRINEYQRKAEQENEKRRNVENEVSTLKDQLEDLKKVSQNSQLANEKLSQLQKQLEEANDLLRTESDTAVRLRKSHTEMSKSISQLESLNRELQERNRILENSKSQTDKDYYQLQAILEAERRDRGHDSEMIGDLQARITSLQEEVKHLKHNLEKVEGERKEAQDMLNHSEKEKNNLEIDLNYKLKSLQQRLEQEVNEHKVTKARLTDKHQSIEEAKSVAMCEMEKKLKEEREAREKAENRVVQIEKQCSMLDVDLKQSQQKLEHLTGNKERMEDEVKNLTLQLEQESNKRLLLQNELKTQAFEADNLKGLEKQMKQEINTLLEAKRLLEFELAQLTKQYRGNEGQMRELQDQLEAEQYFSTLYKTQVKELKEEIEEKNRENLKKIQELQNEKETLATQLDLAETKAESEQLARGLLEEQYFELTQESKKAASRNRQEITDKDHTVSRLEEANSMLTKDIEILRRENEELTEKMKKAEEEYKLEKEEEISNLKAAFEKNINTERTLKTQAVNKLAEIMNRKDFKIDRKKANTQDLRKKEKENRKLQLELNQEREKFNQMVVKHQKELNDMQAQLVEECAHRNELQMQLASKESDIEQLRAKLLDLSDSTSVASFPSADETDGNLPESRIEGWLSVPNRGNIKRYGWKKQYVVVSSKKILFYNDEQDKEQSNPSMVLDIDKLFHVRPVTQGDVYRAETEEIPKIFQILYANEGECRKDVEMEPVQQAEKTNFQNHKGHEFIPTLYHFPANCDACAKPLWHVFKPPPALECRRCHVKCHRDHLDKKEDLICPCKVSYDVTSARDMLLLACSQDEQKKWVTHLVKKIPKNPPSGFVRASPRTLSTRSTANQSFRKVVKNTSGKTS

IC50 [1] [nM] | IC50 [2] [nM] | Ratio IC50 (Homo sapiens) | Structure (SMILES)
172 | 523 | 3 | COc1ccc2c(c1)C[C@@H](C(=O)Nc1ccc(-c3ccncc3)cc1OCCN(C)C)CO2
9 | 170 | 18.9 | COc1ccc2c(c1)CC(C(=O)Nc1ccc(-c3ccncc3)cc1OCCN(C)C)CO2 (stereo not given)
3 | 68 | 22.7 | COc1ccc2c(c1)C[C@H](C(=O)Nc1ccc(-c3ccncc3)cc1OCCN(C)C)CO2
7 | 104 | 14.8 | CN(C)CCOc1cc(-c2ccncc2)ccc1NC(=O)C1COc2ccc(F)cc2C1 (stereo not given)
1.2 | 16.3 | 13.6 | COc1ccc2c(c1)CC(C(=O)Nc1ccc(-c3c[nH]nc3C)cc1OCCN(C)C)CO2 (stereo not given)
24 | 169 | 7 | Cc1ccc2c(c1)CC(C(=O)Nc1ccc(-c3ccncc3)cc1OCCN(C)C)CO2 (stereo not given)
 | 3.4 |  | COc1ccc2c(c1)CC(C(=O)Nc1ccc(-c3cn[nH]c3)cc1OCCN(C)C)CO2 (stereo not given)
7 | 30 | 4.3 | CN(C)CCOc1cc(-c2ccncc2)ccc1NC(=O)C1COc2ccccc2C1 (stereo not given)
22 | 135 | 6.1 | CN(C)CCOc1cc(-c2ccncc2)ccc1NC(=O)C1COc2ccc(Cl)cc2C1 (stereo not given)

Source: ChEMBL document CHEMBL4480429, “Discovery of (S)-6-methoxy-chroman-3-carboxylic acid (4-pyridin-4-yl-phenyl)-amide as potent and isoform selective ROCK2 inhibitors” (Bioorg Med Chem, 2019)
